We go through one molecule from patent US20050196385A1, “Methods for producing gamma delta t cells” (Innate Pharama, priority 2002, published 2005).

In this assay the test system is gamma 9 delta 2 T cells. The experiment in a line: TNF release test after BrHPP stimulation. The format is cell-based, human. The following applies: for TNF alpha production (pg/ml) on 25,000 cells: 3 μM BrHPP, 24 hours, day 21; for Pg/ml of alpha TNF produced by 25 000 cells: cells formulated in HSA 4%, triplicate means. Here is the method:
Different tests were carried out on the cells obtained to evaluate their functional activity. In particular, said tests concerned the cytotoxic activity of the cells and their production of TNF. • Cytotoxicity test. For this test, the target cells were isotopically labelled with ^51Cr (10 μl of ^51Cr/1 million target cells in 24-well plates), then incubated for 1 hour at 37° C. The cells were distributed (in duplicate) at a rate of 3000 cells per well in RPMI/10% FCS (50 μl), and spontaneous and maximum release of ^51Cr were determined. Effector cells (gamma delta T cells of the invention) were then added (50 μl in RPMI/10% FCS) to each target, at the following effector/target (E/T) ratios: 30/1, 3/1, 0.3/1, and incubated for 3 to 4 hours at 37° C. Cytotoxic activity (lysis of target cells) was determined by measuring the released radioactivity on 25 μl of supernatant in a β plate counter. • TNF release test. Cells were washed twice in RPMI then cultured in 96-well plates in RPMI/10% FCS in the presence of 3 μM BrHPP for 24 hours. TNF was assayed in the supernatant using the Beckman Coulter Kit Immunotech, ref. IM 11121. IC—Results Choice of Medium
The formulated cell product was tested for functionality by the TNF release test at different time points to evaluate its stability.

Regarding `CC(O)(CBr)CCOP(=O)(O)OP(=O)(O)O` (stereo not shown) [BrHPP, 3-(bromomethyl)-3-butanol-1-yl-diphosphate], the “TNF alpha production (pg/ml) on 25,000 cells” value reads like this: (cells of donor D623 from fresh MNC) 1332.7 pg/mL; (cells of donor D623 from frozen MNC) 1442.36 pg/mL; (cells of donor D711 from fresh MNC) 903.3 pg/mL; (cells of donor D711 from frozen MNC) 1336.16 pg/mL; (cells of donor D762 from fresh MNC) 782.08 pg/mL; (cells of donor D762 from frozen MNC) 973.7 pg/mL. Also, the “Pg/ml of alpha TNF produced by 25 000 cells” value by setting is: (T = 2 h after formulation) 381.358 pg/mL; (T = 4 h after formulation) 359.624 pg/mL; (T = 8 h after formulation) 327.31 pg/mL; (T = 22 h after formulation) 127.56 pg/mL.
